Measured values published in ChEMBL document CHEMBL1145498, “A systematic interaction map of validated kinase inhibitors with Ser/Thr kinases” (Proc Natl Acad Sci U S A, 2007).

molecular target: T1, Serine/threonine-protein kinase VRK3 (Homo sapiens) (UniProt Q8IV63)
T1 sequence (whole entry): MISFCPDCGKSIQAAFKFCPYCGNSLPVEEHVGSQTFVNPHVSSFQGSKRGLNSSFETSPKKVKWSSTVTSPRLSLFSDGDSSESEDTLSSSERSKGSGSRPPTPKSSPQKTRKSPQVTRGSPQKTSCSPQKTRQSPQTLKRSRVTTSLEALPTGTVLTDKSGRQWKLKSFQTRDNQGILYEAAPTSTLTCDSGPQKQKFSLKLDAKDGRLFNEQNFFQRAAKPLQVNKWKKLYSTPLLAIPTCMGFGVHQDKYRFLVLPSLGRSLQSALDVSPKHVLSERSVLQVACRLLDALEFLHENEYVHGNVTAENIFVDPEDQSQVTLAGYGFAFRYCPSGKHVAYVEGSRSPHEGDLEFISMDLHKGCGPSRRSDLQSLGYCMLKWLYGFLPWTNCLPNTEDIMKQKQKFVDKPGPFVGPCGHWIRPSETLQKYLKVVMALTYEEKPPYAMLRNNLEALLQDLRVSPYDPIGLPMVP

Row | ΔTm [°C] | Structure (SMILES)
1 | 0.5 | N#C/C(=C(/N)Sc1ccc(N)cc1)c1ccccc1C(F)(F)F
2 | -1 | CN(C)c1ncnc2nc[nH]c12 [DIMETHYLADENINE]
3 | -0.6 | COc1ccc(S(=O)(=O)N(CCO)c2ccccc2CN(C)C/C=C/c2ccc(Cl)cc2)cc1

molecular target: T2, Serine/threonine-protein kinase 17A (Homo sapiens) (UniProt Q9UEE5)
T2 sequence (whole entry): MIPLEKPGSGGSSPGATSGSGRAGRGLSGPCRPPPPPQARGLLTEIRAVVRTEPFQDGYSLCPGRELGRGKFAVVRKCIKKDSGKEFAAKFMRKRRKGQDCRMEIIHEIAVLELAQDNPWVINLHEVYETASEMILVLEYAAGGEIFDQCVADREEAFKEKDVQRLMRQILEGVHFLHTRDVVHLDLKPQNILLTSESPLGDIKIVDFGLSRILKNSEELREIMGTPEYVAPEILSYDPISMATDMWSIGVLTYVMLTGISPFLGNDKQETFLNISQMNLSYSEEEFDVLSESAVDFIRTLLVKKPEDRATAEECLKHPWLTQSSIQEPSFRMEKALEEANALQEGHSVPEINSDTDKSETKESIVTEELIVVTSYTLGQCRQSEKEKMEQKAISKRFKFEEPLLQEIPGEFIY

Row | ΔTm [°C] | Structure (SMILES)
4 | 0.4 | N#C/C(=C(/N)Sc1ccc(N)cc1)c1ccccc1C(F)(F)F
5 | 1.5 | CN(C)c1ncnc2nc[nH]c12 [DIMETHYLADENINE]
6 | 0.1 | COc1ccc(S(=O)(=O)N(CCO)c2ccccc2CN(C)C/C=C/c2ccc(Cl)cc2)cc1

molecular target: Serine/threonine-protein kinase 26 (Homo sapiens) (UniProt Q9P289)
Sequence (Q9P289 2-416 limits assumed): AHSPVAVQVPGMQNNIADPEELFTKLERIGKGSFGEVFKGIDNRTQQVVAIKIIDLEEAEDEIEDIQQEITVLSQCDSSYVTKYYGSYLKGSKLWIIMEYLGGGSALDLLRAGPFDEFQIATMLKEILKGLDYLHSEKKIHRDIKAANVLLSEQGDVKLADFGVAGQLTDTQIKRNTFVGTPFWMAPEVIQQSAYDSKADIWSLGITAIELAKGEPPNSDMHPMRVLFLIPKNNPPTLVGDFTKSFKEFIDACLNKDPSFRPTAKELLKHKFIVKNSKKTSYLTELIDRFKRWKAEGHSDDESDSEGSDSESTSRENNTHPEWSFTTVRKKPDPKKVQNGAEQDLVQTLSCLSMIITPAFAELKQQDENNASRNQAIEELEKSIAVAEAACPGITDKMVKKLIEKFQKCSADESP

Row | ΔTm [°C] | Structure (SMILES)
7 | 1.1 | N#C/C(=C(/N)Sc1ccc(N)cc1)c1ccccc1C(F)(F)F
8 | 0.1 | CN(C)c1ncnc2nc[nH]c12 [DIMETHYLADENINE]
9 | 0.1 | COc1ccc(S(=O)(=O)N(CCO)c2ccccc2CN(C)C/C=C/c2ccc(Cl)cc2)cc1

molecular target: Serine/threonine-protein kinase PAK 6 (Homo sapiens) (UniProt Q9NQU5)
Sequence (Q9NQU5 whole entry, looked up): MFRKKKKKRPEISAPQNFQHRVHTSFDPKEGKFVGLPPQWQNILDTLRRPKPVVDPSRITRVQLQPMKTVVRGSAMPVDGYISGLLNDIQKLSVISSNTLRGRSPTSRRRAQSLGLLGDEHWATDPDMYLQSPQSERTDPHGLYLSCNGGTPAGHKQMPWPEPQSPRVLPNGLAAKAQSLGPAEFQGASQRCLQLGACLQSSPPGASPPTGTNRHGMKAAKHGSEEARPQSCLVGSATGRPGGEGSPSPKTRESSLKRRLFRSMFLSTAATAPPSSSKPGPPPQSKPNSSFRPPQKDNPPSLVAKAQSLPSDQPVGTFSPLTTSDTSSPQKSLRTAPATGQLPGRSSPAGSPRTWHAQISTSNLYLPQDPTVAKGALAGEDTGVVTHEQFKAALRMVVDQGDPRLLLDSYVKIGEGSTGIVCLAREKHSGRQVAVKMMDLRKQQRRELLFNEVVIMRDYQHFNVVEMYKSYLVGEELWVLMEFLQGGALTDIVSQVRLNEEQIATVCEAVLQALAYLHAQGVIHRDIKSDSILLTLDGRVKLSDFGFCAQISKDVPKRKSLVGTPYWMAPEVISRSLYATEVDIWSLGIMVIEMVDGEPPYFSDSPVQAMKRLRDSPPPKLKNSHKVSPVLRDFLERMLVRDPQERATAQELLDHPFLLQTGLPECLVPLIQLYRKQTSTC

Row | ΔTm [°C] | Structure (SMILES)
10 | 0.4 | N#C/C(=C(/N)Sc1ccc(N)cc1)c1ccccc1C(F)(F)F
11 | -0.3 | CN(C)c1ncnc2nc[nH]c12 [DIMETHYLADENINE]
12 | -0.8 | COc1ccc(S(=O)(=O)N(CCO)c2ccccc2CN(C)C/C=C/c2ccc(Cl)cc2)cc1

molecular target: cAMP-dependent protein kinase catalytic subunit alpha (Homo sapiens) (UniProt P17612)

Row | ΔTm [°C] | Structure (SMILES)
13 | 0.7 | N#C/C(=C(/N)Sc1ccc(N)cc1)c1ccccc1C(F)(F)F
14 | 0.7 | CN(C)c1ncnc2nc[nH]c12 [DIMETHYLADENINE]
15 | -4.1 | COc1ccc(S(=O)(=O)N(CCO)c2ccccc2CN(C)C/C=C/c2ccc(Cl)cc2)cc1

molecular target: 5'-AMP-activated protein kinase catalytic subunit alpha-2 (Homo sapiens) (UniProt P54646)
Sequence (P54646 whole entry, looked up): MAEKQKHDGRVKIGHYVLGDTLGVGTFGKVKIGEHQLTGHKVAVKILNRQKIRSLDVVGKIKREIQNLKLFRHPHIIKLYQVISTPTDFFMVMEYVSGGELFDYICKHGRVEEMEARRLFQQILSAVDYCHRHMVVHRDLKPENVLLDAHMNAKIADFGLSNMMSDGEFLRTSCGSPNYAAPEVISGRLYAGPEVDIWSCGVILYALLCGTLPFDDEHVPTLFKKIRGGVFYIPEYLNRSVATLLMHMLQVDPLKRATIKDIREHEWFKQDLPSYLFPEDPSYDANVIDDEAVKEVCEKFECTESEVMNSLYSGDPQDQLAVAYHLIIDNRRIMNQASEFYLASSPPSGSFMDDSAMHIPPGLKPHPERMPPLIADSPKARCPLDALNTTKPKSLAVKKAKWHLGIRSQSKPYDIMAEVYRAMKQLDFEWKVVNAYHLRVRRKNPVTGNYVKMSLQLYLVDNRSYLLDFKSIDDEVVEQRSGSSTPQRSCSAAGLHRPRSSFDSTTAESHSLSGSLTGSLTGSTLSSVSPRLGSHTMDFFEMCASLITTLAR

Row | ΔTm [°C] | Structure (SMILES)
16 | -0.8 | N#C/C(=C(/N)Sc1ccc(N)cc1)c1ccccc1C(F)(F)F
17 | -0.6 | CN(C)c1ncnc2nc[nH]c12 [DIMETHYLADENINE]
18 | -1 | COc1ccc(S(=O)(=O)N(CCO)c2ccccc2CN(C)C/C=C/c2ccc(Cl)cc2)cc1

molecular target: T3, Mitogen-activated protein kinase kinase kinase 5 (Homo sapiens) (UniProt Q99683)
T3 sequence (whole entry): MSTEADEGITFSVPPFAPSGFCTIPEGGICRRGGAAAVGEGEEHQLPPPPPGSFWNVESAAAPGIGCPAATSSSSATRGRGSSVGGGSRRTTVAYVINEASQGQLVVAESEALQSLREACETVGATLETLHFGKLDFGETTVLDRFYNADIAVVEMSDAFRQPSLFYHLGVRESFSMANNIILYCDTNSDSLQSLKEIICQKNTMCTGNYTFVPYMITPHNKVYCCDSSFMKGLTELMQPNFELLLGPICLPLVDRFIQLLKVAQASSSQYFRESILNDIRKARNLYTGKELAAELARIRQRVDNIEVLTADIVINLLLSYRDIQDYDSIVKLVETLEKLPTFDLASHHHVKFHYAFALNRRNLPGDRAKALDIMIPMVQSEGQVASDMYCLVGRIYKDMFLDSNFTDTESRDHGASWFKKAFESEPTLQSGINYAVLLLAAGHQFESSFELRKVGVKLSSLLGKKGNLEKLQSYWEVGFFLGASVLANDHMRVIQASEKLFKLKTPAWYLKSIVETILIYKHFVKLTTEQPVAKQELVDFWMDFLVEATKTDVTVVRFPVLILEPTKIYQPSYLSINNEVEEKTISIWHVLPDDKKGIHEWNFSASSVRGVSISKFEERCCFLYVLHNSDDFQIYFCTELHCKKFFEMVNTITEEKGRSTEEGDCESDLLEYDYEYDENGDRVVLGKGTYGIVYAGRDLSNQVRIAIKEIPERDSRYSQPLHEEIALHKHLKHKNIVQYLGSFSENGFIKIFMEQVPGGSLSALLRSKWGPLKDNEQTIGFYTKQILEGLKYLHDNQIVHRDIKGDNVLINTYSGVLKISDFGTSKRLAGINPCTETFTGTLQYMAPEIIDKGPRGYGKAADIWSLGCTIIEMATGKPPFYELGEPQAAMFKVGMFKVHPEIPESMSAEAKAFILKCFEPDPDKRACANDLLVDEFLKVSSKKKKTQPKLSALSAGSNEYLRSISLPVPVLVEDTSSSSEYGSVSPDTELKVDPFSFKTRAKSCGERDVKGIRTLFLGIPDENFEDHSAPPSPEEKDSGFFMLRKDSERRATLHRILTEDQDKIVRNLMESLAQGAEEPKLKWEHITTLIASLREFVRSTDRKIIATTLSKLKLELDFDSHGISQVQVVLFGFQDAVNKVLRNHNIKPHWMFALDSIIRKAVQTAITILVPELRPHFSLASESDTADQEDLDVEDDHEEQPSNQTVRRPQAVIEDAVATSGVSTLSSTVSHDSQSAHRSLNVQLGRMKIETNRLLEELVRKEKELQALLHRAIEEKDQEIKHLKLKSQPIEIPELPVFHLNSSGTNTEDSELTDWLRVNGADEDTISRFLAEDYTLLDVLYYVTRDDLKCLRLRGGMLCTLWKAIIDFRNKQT

Row | ΔTm [°C] | Structure (SMILES)
19 | -0.1 | N#C/C(=C(/N)Sc1ccc(N)cc1)c1ccccc1C(F)(F)F
20 | 2.8 | CN(C)c1ncnc2nc[nH]c12 [DIMETHYLADENINE]
21 | -0.1 | COc1ccc(S(=O)(=O)N(CCO)c2ccccc2CN(C)C/C=C/c2ccc(Cl)cc2)cc1

molecular target: Serine/threonine-protein kinase Nek6 (Homo sapiens) (UniProt Q9HC98)
Sequence (Q9HC98 whole entry): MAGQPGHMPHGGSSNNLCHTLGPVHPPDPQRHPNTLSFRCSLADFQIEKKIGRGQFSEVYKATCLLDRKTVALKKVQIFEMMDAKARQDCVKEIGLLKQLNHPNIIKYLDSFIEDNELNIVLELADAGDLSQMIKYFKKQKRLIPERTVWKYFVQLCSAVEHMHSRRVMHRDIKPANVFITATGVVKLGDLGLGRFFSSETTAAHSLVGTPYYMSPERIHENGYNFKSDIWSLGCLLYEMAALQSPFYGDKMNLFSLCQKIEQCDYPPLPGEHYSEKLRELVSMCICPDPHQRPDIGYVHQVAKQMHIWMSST

Row | ΔTm [°C] | Structure (SMILES)
22 | -0.1 | N#C/C(=C(/N)Sc1ccc(N)cc1)c1ccccc1C(F)(F)F
23 | 0 | CN(C)c1ncnc2nc[nH]c12 [DIMETHYLADENINE]
24 | 0.3 | COc1ccc(S(=O)(=O)N(CCO)c2ccccc2CN(C)C/C=C/c2ccc(Cl)cc2)cc1

molecular target: Serine/threonine-protein kinase pim-2 (Homo sapiens, UniProt Q9P1W9)
Sequence (Q9P1W9 whole entry, looked up): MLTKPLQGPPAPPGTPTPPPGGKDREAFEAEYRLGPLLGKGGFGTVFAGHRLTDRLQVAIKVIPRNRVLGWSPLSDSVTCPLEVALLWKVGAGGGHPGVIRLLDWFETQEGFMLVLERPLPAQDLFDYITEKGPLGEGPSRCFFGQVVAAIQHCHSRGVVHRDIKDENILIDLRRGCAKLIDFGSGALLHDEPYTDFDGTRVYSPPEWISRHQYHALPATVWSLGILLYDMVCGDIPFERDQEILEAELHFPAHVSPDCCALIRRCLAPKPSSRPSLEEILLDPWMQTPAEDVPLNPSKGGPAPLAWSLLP

Row | ΔTm [°C] | Structure (SMILES)
25 | 0.2 | N#C/C(=C(/N)Sc1ccc(N)cc1)c1ccccc1C(F)(F)F
26 | 0.3 | CN(C)c1ncnc2nc[nH]c12 [DIMETHYLADENINE]
27 | 0.6 | COc1ccc(S(=O)(=O)N(CCO)c2ccccc2CN(C)C/C=C/c2ccc(Cl)cc2)cc1

molecular target: Casein kinase I isoform gamma-3 (Homo sapiens) (UniProt Q9Y6M4)

Row | ΔTm [°C] | Structure (SMILES)
28 | 0.6 | N#C/C(=C(/N)Sc1ccc(N)cc1)c1ccccc1C(F)(F)F
29 | 0.5 | CN(C)c1ncnc2nc[nH]c12 [DIMETHYLADENINE]
30 | 0 | COc1ccc(S(=O)(=O)N(CCO)c2ccccc2CN(C)C/C=C/c2ccc(Cl)cc2)cc1

molecular target: Serine/threonine-protein kinase 10 (Homo sapiens) (UniProt O94804)
Sequence (O94804 whole entry, looked up): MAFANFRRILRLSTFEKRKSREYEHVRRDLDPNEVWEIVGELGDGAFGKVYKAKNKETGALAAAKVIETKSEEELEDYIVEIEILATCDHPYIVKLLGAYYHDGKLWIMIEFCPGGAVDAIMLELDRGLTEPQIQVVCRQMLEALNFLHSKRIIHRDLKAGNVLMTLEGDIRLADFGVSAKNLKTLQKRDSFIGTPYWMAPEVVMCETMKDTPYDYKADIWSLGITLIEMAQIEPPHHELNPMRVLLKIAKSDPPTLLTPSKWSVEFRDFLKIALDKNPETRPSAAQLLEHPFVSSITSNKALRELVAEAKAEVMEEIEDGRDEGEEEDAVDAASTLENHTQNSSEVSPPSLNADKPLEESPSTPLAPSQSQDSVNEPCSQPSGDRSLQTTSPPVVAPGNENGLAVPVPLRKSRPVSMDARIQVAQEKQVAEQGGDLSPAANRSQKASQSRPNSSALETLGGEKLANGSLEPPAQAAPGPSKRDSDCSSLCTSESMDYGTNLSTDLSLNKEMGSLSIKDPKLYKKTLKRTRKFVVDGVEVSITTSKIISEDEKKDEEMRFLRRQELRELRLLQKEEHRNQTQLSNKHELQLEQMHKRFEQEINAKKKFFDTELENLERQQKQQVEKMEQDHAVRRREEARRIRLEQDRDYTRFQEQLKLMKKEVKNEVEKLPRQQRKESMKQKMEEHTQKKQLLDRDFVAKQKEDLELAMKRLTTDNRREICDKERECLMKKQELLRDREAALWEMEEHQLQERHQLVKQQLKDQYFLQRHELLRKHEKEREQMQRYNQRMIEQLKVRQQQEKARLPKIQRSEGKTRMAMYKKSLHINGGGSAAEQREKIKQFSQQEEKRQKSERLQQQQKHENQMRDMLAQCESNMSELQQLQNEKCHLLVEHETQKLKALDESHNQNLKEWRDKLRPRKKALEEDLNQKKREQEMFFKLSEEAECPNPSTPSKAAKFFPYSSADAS

Row | ΔTm [°C] | Structure (SMILES)
31 | 0.4 | N#C/C(=C(/N)Sc1ccc(N)cc1)c1ccccc1C(F)(F)F
32 | -0.4 | CN(C)c1ncnc2nc[nH]c12 [DIMETHYLADENINE]
33 | 0.2 | COc1ccc(S(=O)(=O)N(CCO)c2ccccc2CN(C)C/C=C/c2ccc(Cl)cc2)cc1

molecular target: Cyclin-dependent kinase 16 (Homo sapiens) (UniProt Q00536)

Row | ΔTm [°C] | Structure (SMILES)
34 | 0 | N#C/C(=C(/N)Sc1ccc(N)cc1)c1ccccc1C(F)(F)F
35 | -0.3 | CN(C)c1ncnc2nc[nH]c12 [DIMETHYLADENINE]
36 | -0.6 | COc1ccc(S(=O)(=O)N(CCO)c2ccccc2CN(C)C/C=C/c2ccc(Cl)cc2)cc1

molecular target: Tyrosine-protein kinase JAK1 (Homo sapiens) (UniProt P23458)
Sequence (P23458 whole entry): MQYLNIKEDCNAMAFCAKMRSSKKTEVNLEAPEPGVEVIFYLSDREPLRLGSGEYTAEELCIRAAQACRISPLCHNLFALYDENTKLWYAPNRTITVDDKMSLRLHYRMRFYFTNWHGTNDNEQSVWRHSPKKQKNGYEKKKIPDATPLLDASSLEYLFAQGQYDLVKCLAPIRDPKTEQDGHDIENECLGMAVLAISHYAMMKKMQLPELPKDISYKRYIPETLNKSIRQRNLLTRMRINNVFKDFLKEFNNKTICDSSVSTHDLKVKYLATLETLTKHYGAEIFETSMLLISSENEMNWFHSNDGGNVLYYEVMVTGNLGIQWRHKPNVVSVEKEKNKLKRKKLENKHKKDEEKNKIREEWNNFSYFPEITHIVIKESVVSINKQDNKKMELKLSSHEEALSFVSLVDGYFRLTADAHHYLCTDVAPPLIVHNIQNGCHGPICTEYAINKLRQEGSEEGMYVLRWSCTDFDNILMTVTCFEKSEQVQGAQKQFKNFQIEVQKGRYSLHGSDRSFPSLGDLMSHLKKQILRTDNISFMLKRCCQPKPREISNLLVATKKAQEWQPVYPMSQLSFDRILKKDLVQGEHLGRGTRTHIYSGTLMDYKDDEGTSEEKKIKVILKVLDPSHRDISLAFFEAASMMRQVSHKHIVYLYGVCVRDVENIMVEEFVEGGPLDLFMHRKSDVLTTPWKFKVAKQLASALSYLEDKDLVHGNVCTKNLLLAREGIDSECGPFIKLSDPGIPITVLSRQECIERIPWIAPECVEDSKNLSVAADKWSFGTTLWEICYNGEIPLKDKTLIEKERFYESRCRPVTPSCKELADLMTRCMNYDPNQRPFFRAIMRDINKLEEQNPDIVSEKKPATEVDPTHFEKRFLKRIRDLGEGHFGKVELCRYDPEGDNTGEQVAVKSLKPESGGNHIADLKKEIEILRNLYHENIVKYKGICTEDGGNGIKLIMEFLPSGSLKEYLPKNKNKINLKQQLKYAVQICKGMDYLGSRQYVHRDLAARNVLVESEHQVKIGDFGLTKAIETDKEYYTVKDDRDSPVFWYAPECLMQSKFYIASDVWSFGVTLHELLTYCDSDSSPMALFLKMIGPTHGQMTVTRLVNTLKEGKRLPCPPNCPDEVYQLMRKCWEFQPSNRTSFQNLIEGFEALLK

Row | ΔTm [°C] | Structure (SMILES)
37 | -5 | N#C/C(=C(/N)Sc1ccc(N)cc1)c1ccccc1C(F)(F)F
38 | 0.9 | CN(C)c1ncnc2nc[nH]c12 [DIMETHYLADENINE]
39 | -0.5 | COc1ccc(S(=O)(=O)N(CCO)c2ccccc2CN(C)C/C=C/c2ccc(Cl)cc2)cc1

molecular target: Calcium/calmodulin-dependent protein kinase kinase 2 (Homo sapiens, UniProt Q96RR4)
Sequence (Q96RR4 2-588 limits assumed): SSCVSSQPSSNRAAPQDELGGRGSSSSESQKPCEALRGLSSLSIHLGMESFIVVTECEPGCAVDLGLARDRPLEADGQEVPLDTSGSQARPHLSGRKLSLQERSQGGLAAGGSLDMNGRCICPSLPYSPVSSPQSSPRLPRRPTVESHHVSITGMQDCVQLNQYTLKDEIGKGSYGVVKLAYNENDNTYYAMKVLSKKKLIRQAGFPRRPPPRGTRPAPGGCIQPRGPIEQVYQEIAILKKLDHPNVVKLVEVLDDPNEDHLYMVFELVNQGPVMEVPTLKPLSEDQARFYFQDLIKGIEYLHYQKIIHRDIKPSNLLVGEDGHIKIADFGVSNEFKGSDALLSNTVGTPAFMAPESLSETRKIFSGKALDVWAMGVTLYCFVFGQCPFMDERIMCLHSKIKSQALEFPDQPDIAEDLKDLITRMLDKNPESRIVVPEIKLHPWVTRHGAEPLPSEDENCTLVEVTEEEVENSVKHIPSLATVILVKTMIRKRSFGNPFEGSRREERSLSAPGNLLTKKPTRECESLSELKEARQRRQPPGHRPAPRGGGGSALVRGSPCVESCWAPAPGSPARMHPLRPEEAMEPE

Row | ΔTm [°C] | Structure (SMILES)
40 | -0.2 | N#C/C(=C(/N)Sc1ccc(N)cc1)c1ccccc1C(F)(F)F
41 | 1 | CN(C)c1ncnc2nc[nH]c12 [DIMETHYLADENINE]
42 | 0 | COc1ccc(S(=O)(=O)N(CCO)c2ccccc2CN(C)C/C=C/c2ccc(Cl)cc2)cc1

molecular target: Serine/threonine-protein kinase 38 (Homo sapiens) (UniProt Q15208)

Row | ΔTm [°C] | Structure (SMILES)
43 | 0.4 | N#C/C(=C(/N)Sc1ccc(N)cc1)c1ccccc1C(F)(F)F
44 | 0.3 | CN(C)c1ncnc2nc[nH]c12 [DIMETHYLADENINE]
45 | -0.2 | COc1ccc(S(=O)(=O)N(CCO)c2ccccc2CN(C)C/C=C/c2ccc(Cl)cc2)cc1
